Calls of active or inactive are those of the source.
Experiments:
[1] = potency of ADAM10 substrate cleavage blockers – biochemical, QFRET, dose response (AID 743254);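 further: ADAM10 enzyme with the DM2 quenched FRET peptide as substrate; EDANS fluorescence gain as the protease cuts the substrate; inhibitor potency against ADAM10 proteolytic activity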
[2] = target: T1, Disintegrin and metalloproteinase domain-containing protein 17 (Homo sapiens, UniProt P78536); assay: inhibition of ADAM17 substrate cleavage – biochemical, quenched FRET substrate, counter-screen for ADAM10 exosite inhibitor project, dose response (AID 743253)
[3] = target: T2, Methionyl-tRNA synthetase, putative (Trypanosoma brucei brucei, UniProt Q38C91); assay type: functional, Trypanosoma brucei brucei strain 927/4 GUTat10.1
T2 sequence (Q38C91 whole entry): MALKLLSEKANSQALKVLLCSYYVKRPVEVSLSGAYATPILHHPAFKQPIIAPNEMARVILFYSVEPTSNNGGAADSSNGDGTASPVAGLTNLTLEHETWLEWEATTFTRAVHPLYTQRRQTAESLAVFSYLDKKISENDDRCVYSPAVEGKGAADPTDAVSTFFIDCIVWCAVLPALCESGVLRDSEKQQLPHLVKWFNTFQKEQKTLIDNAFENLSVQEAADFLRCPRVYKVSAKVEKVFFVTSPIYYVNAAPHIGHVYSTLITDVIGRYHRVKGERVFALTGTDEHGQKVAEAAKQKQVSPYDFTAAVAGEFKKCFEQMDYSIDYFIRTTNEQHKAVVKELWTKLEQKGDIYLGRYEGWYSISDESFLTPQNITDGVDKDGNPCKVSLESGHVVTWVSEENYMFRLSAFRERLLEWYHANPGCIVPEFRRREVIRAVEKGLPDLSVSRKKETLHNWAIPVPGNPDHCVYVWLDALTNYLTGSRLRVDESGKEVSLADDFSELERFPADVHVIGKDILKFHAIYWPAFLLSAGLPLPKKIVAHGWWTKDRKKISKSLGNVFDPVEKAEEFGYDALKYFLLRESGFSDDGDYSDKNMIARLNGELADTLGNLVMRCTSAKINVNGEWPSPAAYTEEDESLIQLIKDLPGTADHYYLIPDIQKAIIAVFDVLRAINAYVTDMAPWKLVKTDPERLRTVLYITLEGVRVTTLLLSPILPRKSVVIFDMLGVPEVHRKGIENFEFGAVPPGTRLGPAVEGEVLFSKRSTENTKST

[4] = Counterscreen for inhibitors of Trypanosoma brucei methionyl tRNA synthetase (MetRS): Luminescence-based cell-based high throughput dose response assay to identify compounds that are cytotoxic to Jurkat human T lymphocyte cells.; assay type: functional
[5] = target: T2, Methionyl-tRNA synthetase, putative; assay type: functional, Trypanosoma brucei brucei strain 927/4 GUTat10.1; remark: listed apart in the source
[6] = general mammalian cell viability loss – inhibitor set, cherry-pick, set 2, cytotoxicity control for miR-122 modulator project, dose response (AID 720697); assay type: functional, cell-based
[7] = Luminescence Cell-Based Dose Response HTS to Identify Activators of Luciferase Translation or Activity in H4 […] Cells. [Related pubchem assays: 1829 (Project Summary), 1814 (Primary HTS)]; assay type: functional
H4 = assay: Luminescence Cell-Based Dose Response HTS to Identify Activators of 5'UTR Stem-Loop Driven Prion Protein mRNA Translation in H4 Neuroglioblastoma Cells. [Related pubchem assays: 1829 (Project Summary), 1814 (Primary HTS)]; assay type: functional; details: Homo sapiens
[8] = target: T3, Replicative DNA helicase DnaB (Mycobacterium tuberculosis, UniProt P9WMR3); assay: DnaB intein splicing inhibitors, dose response, biochemical, cell-free fluorescence (AID 449749); assay type: functional
T3 sequence (P9WMR3 whole entry): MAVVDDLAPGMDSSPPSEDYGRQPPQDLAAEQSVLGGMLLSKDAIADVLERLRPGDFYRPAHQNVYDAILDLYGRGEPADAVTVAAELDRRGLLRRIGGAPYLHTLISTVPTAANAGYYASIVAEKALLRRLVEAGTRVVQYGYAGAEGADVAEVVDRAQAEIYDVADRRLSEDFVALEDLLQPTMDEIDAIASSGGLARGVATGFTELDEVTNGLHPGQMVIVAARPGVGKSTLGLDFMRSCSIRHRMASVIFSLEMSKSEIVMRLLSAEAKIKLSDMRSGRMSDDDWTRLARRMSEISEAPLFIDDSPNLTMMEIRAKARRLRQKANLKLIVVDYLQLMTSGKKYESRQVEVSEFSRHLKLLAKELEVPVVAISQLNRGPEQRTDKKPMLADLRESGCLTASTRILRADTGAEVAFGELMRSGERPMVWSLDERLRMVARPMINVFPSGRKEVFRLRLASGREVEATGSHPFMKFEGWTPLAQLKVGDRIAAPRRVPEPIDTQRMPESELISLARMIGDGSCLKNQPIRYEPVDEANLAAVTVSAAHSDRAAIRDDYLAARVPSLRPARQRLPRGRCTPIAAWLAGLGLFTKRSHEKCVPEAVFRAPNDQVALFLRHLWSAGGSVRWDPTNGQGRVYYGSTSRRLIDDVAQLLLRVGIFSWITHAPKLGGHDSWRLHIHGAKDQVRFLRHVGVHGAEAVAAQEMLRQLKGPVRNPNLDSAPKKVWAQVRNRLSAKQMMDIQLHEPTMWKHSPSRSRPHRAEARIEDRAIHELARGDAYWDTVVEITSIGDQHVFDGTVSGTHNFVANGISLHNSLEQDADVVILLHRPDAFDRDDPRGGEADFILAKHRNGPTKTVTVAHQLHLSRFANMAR

Protein RecA = target: T4, Protein RecA (Mycobacterium tuberculosis, UniProt P9WHJ3); assay: Fluorescence Cell-Free Homogeneous Dose Retest to Identify Inhibitors of RecA-Intein Splicing Activity. [Related pubchem assays (depositor defined):AID2097, AID2223, AID489010, AID492950]; assay type: functional
T4 sequence (P9WHJ3 whole entry): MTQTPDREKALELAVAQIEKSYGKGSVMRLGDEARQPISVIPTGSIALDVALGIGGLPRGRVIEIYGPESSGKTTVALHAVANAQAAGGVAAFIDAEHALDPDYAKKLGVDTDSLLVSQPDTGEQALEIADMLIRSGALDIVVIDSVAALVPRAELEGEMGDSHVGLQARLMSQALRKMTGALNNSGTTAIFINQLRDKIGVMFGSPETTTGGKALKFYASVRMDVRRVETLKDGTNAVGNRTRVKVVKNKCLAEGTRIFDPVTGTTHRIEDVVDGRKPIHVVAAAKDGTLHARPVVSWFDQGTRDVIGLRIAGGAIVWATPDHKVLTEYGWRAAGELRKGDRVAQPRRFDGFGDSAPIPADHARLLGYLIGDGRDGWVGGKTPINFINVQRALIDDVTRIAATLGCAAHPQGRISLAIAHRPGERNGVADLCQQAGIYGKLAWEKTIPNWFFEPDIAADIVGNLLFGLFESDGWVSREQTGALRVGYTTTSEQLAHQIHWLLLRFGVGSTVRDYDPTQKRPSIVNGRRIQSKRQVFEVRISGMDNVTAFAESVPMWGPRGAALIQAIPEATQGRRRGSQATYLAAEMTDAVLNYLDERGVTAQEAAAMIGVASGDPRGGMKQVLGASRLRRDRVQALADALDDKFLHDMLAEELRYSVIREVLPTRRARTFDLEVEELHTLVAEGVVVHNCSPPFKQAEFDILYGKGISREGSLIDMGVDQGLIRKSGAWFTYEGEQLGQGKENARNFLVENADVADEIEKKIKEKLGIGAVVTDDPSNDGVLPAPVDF

Paired box protein Pax-8 = Paired box protein Pax-8 (Homo sapiens, UniProt Q06710); assay: PAX8 transcriptional activity inhibition in RMG-I – RMG-I cells, luciferase, cherry-pick, dose response (AID 687027); assay type: functional, cell-based;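 further: luciferase reporter driven by Pax8 target thyroperoxidase promoter measured by SteadyGlo luminescence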
[9] = general cell-killing toxicity readout – plate reader, dry powder samples, cytotoxicity control for PAX8 inhibitor project, dose response (AID 743021); assay type: functional, cell-based
H9c2 = assay: cells; assay type: functional, cell-based; details: Rattus norvegicus, H9c2, Myocardium;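 further: confirmatory concentration-response retest of ultra-high-throughput screening hits for modulation of myocardial damage; cell death induced by hydrogen peroxide oxidative stress; compound pretreatment for 60 min then peroxide exposure for 2 h; potency is for protecting the cells against peroxide damage rather than for killing them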
[10] = target: T5, Long-chain-fatty-acid--AMP ligase FadD28 (Mycobacterium tuberculosis, UniProt P9WQ59); assay: Fluorescence polarization aasay to screen for inhibitors that compete for the binding of FadD28 to a bisubstrate Measured in Biochemical System Using Plate Reader - 2147-01_Inhibitor_Dose_CherryPick_Activity.; assay type: functional, Mycobacterium tuberculosis H37Rv
T5 sequence (P9WQ59 whole entry): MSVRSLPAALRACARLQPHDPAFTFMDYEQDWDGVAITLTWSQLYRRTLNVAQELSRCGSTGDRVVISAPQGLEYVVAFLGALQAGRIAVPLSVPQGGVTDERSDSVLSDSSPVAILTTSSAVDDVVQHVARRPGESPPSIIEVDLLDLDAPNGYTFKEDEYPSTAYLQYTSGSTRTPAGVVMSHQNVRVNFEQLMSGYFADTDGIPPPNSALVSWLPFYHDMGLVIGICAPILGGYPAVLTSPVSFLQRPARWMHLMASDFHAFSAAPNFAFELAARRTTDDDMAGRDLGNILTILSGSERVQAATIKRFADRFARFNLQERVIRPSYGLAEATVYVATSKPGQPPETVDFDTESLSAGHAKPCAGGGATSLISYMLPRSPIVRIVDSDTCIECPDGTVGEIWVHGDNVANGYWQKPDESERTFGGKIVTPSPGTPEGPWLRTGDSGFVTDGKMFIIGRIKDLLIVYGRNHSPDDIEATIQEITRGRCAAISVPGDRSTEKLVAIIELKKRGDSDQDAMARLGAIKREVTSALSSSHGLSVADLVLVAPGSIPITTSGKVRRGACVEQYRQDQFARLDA

[11] = target: T1, Disintegrin and metalloproteinase domain-containing protein 17; assay: exosite inhibitors of ADAM17, dose response, biochemical (AID 743260)
[12] = inhibition of ADAM10 peptide cleavage – biochemical, FRET peptide substrate, recombinant human ADAM10, selectivity assay for ADAM17 exosite inhibitor project, dose response (AID 743259);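 further: ADAM10 enzyme cleaving a FRET peptide substrate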
cells = assay type: functional, cell-based
[13] = target: T6, Nuclear receptor subfamily 0 group B member 1 (Homo sapiens, UniProt P51843); assay type: functional, cell-based;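 further: HEK293T cells transfected with SF-1 and DAX-1 plus StAR promoter luciferase reporter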
T6 sequence (P51843 whole entry): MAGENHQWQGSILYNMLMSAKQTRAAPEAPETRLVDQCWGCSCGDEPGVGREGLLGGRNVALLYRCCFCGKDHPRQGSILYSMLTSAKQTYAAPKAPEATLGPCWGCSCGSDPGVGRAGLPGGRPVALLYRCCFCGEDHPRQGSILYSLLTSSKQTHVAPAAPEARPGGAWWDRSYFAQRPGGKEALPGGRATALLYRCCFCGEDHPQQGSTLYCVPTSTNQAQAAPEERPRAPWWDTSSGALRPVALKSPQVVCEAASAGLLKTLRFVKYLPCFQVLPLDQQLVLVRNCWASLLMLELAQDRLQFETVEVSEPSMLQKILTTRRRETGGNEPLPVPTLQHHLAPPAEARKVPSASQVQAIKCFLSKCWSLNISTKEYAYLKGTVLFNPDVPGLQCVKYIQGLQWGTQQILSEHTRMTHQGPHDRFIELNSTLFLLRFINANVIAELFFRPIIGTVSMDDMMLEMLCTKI

[14] = OVCAR-3 cell viability loss – plate reader, dry powder samples, PAX8 inhibitor project, dose response (AID 743044); assay type: functional, cell-based
[15] = IGROV1 cell killing – plate reader, dry powder samples, PAX8 inhibitor project, dose response (AID 743043); assay type: functional, cell-based; details: IGROV-1
[16] = OVCAR8 cell viability loss – plate reader, dry powder samples, PAX8 project, dose response (AID 743197); assay type: functional, cell-based; details: OVCAR-8

T1 sequence (P78536 whole entry, the tested form may be a part): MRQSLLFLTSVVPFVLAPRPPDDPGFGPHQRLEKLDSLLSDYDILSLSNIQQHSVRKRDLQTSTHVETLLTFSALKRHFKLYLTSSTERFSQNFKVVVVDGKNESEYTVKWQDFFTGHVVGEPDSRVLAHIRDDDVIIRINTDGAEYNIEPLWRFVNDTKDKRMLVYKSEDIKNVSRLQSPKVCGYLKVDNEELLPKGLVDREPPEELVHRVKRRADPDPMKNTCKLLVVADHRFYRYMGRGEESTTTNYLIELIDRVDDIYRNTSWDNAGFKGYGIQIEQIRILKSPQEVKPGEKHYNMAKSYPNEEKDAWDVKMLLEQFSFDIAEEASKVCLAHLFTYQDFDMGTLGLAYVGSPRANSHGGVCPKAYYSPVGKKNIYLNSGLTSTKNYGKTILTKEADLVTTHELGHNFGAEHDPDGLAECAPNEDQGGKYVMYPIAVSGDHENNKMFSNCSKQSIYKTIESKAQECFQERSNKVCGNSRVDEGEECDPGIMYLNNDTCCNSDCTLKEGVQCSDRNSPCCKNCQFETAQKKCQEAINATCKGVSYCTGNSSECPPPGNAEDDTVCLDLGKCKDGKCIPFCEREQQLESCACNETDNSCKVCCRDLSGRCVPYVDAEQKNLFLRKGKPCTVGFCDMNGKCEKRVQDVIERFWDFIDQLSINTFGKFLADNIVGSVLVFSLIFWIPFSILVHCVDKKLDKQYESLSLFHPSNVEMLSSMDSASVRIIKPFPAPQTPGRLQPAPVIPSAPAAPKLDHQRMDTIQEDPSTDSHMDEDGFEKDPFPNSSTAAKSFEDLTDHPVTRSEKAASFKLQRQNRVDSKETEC
Sequence of Paired box protein Pax-8 (Q06710 whole entry): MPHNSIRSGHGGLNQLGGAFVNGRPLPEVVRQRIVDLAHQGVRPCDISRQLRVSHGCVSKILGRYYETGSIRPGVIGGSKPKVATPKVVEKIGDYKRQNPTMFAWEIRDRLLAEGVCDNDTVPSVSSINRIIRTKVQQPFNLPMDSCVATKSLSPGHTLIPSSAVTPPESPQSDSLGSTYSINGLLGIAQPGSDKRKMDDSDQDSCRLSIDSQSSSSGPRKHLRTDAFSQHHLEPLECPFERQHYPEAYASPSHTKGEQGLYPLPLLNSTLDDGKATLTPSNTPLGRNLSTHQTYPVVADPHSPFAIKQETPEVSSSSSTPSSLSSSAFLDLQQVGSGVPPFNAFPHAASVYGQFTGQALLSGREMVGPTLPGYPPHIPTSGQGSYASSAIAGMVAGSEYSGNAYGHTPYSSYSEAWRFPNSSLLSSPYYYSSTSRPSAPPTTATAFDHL

COC(=O)C1=C(c2ccccc2OCc2ccccc2)C[C@@H]2CC[C@H]1N2C(=O)NCc1ccc(C(C)(C)C)cc1
IC50 [1]: > 69.5 µM (inactive)
IC50 [2]: > 69.5 µM (inactive)

O=C(CSc1ccc(-c2nc3ccccc3[nH]2)cn1)Nc1ccc(S(=O)(=O)NC2CC2)cc1
IC50 [3]: 4.53 µM (active)
IC50 [4]: 83.3 µM (inactive)
IC50 [5]: 3.58 µM (active)

Cc1ccc(-n2c(S)nnc2Cc2ccccc2)cc1
AC50 [6]: 3.74 µM (active)

Cc1ccc(-n2nc(C)c(NC(=O)CCl)c2C)cc1C
EC50 [7]: 115 µM (active)
EC50 (H4): > 120 µM (not active)
AC50 [8]: > 380 µM (inactive)
EC50 (Protein RecA): 16 µM (active)
AC50 (Paired box protein Pax-8): 6.77 µM (active)
AC50 [9]: 39.5 µM (active)

O=C(NO)c1ccc(C(=O)N(C2CCCCC2)C2CCCCC2)cc1
IC50 (H9c2): > 79 µM (inactive)
IC50 [1]: 14.6 µM (inactive)
IC50 [2]: 34.9 µM (inactive)

O=C(NN1C(=O)/C(=C/c2ccc(O)cc2)SC1=S)c1cccc(O)c1
IC50 [3]: 30.9 µM (inactive)
IC50 [4]: 83.3 µM (inactive)
IC50 [5]: 44.6 µM (inactive)
AC50 [10]: 62 µM (active)

COc1ccccc1/C=C/C1C(C(=O)OCC(C)C)=C(C)N=C2SCCC(=O)N21 (centres undefined)
IC50 [11]: > 69.5 µM (inactive)
IC50 [12]: > 69.5 µM (inactive)

Clc1ccc(OCc2cc(-c3ccccc3)no2)c(Cl)c1
IC50 (cells): > 67.5 µM (inactive)
IC50 [13]: > 67.5 µM (inactive)

FC(F)(F)c1cc(CCN2C(=S)NC[C@@H]2Cc2ccccc2)cc(C(F)(F)F)c1
IC50 [2]: > 69.5 µM (inactive)

FC(F)(F)c1cc(CCN2C(S)=NC[C@@H]2Cc2ccccc2)cc(C(F)(F)F)c1
IC50 [1]: 11.8 µM (inactive)

Cc1cc(Cl)c2oc(C(=O)N(C)C3CCOC3)c(C)c2c1 (centres undefined)
IC50 (cells): > 67.5 µM (inactive)
IC50 [13]: > 67.5 µM (inactive)

COC(=O)c1sccc1NC(=O)Nc1ccc(C)cc1
IC50 (cells): > 67.6 µM (inactive)
IC50 [13]: > 67.6 µM (inactive)

O=C1NC(=O)C(Cc2ccc(Cl)cc2)(c2ccccc2)N1 (centres undefined)
IC50 [11]: 3.67 µM (active)
IC50 [12]: 29.4 µM (inactive)

O=C(Nc1ccc(F)cc1)N1C[C@@H]2N[C@H](C1)[C@@H]2c1ccc(-c2ccccc2F)cc1
AC50 (Paired box protein Pax-8): 13.8 µM (active)
AC50 [14]: 32 µM (active)
AC50 [15]: 42.5 µM (active)
AC50 [9]: 55.6 µM (active)
AC50 [16]: > 70 µM (inactive)

COCC(=O)NC[C@@H]1[C@H](c2ccc(C3=CCCC3)cc2)[C@H](CO)N1C(=O)C1CC1
AC50 [6]: 0.499 µM (active)

Cc1ccc(OCc2nnc(SC/C=C/c3ccccc3)n2Cc2ccco2)cc1
IC50 [11]: > 69.6 µM (inactive)
IC50 [12]: 16 µM (inactive)

Source: ChEMBL document CHEMBL1201862, “PubChem BioAssay data set” (2004)
